Patent publication US8846933B2, “N-link hydroxamic acid derivatives useful as antibacterial agents” (Pfizer Inc., priority 2009, dated 2014)

Assays:
Assay type in all cases: cell-based
Conditions in all cases: unit assumed
[1] = system: Acinetobacter baumanii/haemolyticus: Multidrug-resistant clinical isolate (AB-3167); experiment: MIC determination (CLSI), strain AB-3167
Procedure: The in vitro antibacterial activity of compounds described in the Examples was evaluated by minimum inhibitory concentration (MIC) testing according to Clinical and Laboratory Standards Institute (CLSI, formerly NCCLS) guidelines. See: Clinical and Laboratory Standards Institute. Methods for Dilution Antimicrobial Susceptibility Tests for Bacteria that Grow Aerobically; Approved Standard-Seventh Edition. CLSI document M7-A7 [ISBN 1-56238-587-9]. Clinical and Laboratory Standards Institute, 940 West Valley Road, Suite 1400, Wayne, Pa. 19087-1898 USA, 2006; also Clinical and Laboratory Standards Institute. Performance Standards for Antimicrobial Susceptibility Testing; Eighteenth Informational Supplement. CLSI document M100-S18 [ISBN1-56238-653-0].Clinical and Laboratory Standards Institute.
The following bacterial strains were used in these MIC determinations:
2) Acinetobacter baumanii/haemolyticus: Multidrug-resistant clinical isolate labeled as AB-3167 in Tables 4 and 5;

[2] = system: Escherichia coli EC-1: VOGEL, mouse virulent; experiment: MIC determination (CLSI), strain EC-1
Summary of the method: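 The mouse-virulent VOGEL isolate of E. coli, EC-1, served as test organism. Minimum inhibitory concentration was measured by CLSI dilution methodology (M7-A7; M100-S18 standards).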

[3] = system: Pseudomonas aeruginosa UI-18: Wild-type (PA-7); experiment: MIC determination (CLSI), strain PA-7
Summary of the method: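 MIC determined by broth dilution per CLSI M7-A7 guidelines with M100-S18 interpretive standards. Test organism: wild-type Pseudomonas aeruginosa UI-18, designated PA-7.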

[4] = Escherichia coli EC-1, VOGEL, mouse virulent
[5] = Pseudomonas aeruginosa UI-18, wild-type
[6] = strain EC-1, generated in the same manner as in Table 4
[7] = strain PA-7, generated in the same manner as in Table 4

| SMILES | AB-3167 (MIC) [1] | EC-1 (MIC) [2, 4] | PA-7 (MIC) [3, 5] | EC-1 (MIC) ([2]; strain EC-1) | PA-7 (MIC) ([3]; strain PA-7) | EC-1 (MIC) [2, 6] | PA-7 (MIC) [3, 7] |
| --- | --- | --- | --- | --- | --- | --- | --- |
| CCS(=O)(=O)C(C)(CCn1ccc(-c2ccccc2)cc1=O)C(=O)NO (centres unmarked) [Example 57, 2-(ethylsulfonyl)-N-hydroxy-2-methyl-4-(2-oxo-4-phenylpyridin-1(2H)-yl)butanamide] | 16 mg/L | 8 mg/L | 64 mg/L | – | – | – | – |
| C[C@@](CCn1ccc(-c2ccccc2)cc1=O)(C(=O)NO)S(C)(=O)=O [Example 11, (2R)-N-Hydroxy-2-methyl-2-(methylsulfonyl)-4-(2-oxo-4-phenylpyridin-1(2H)-yl)butanamide] | 64 mg/L | 8 mg/L | 1 mg/L | – | – | – | – |
| C[C@@](CCn1ccc(-c2ccc(Cl)c(F)c2)cc1=O)(C(=O)NO)S(C)(=O)=O [Example 68-B, (2R)-4-[4-(4-chloro-3-fluorophenyl)-2-oxopyridin-1(2H)-yl]-N-hydroxy-2-methyl-2-(methylsulfonyl)butanamide] | > 64 mg/L | 0.5 mg/L | 0.5 mg/L | – | – | – | – |
| Cc1c(-c2ccc(-n3nccn3)cc2)ccn(CC[C@](C)(C(=O)NO)S(C)(=O)=O)c1=O [Example 68-J, (2R)-N-hydroxy-2-methyl-4-{3-methyl-2-oxo-4-[4-(2H-1,2,3-triazol-2-yl)phenyl]pyridin-1(2H)-yl}-2-(methylsulfonyl)butanamide] | > 64 mg/L | 0.125 mg/L | 1 mg/L | – | – | – | – |
| C[C@@](CCn1ccc(-c2ccc(OC[C@H]3CC[C@@H](O)CC3)cc2F)cc1=O)(C(=O)NO)S(C)(=O)=O [Example 10-L, (2R)-4-[4-{2-fluoro-4-[(cis-4-hydroxycyclohexyl)methoxy]phenyl}-2-oxopyridin-1(2H)-yl]-N-hydroxy-2-methyl-2-(methylsulfonyl)butanamide] | > 64 mg/L | 0.25 mg/L | 1 mg/L | – | – | – | – |
| C[C@@](CCn1ccc(-c2ccc(F)c(F)c2F)cc1=O)(C(=O)NO)S(C)(=O)=O [Example 50, (2R)-N-hydroxy-2-methyl-2-(methylsulfonyl)-4-[2-oxo-4-(2,3,4-trifluorophenyl)pyridin-1(2H)-yl]butanamide] | 64 mg/L | 0.5 mg/L | 0.5 mg/L | – | – | – | – |
| COc1ccc2cc(-c3ccn(CCC(C)(C(=O)NO)S(C)(=O)=O)c(=O)c3)ccc2c1 (racemic) [Example 34, (+/−)-N-hydroxy-4-[4-(6-methoxy-2-naphthyl)-2-oxopyridin-1(2H)-yl]-2-methyl-2-(methylsulfonyl)butanamide] | 8 mg/L | < 0.06 mg/L | 1 mg/L | – | – | – | – |
| C[C@@](CCn1ccc(-c2ccc(-c3ncccn3)cc2)cc1=O)(C(=O)NO)S(C)(=O)=O [Example 39, (2R)-N-hydroxy-2-methyl-2-(methylsulfonyl)-4-[2-oxo-4-(4-pyrimidin-2-ylphenyl)pyridin-1(2H)-yl]butanamide] | > 64 mg/L | 0.5 mg/L | 2 mg/L | – | – | – | – |
| C[C@@](CCn1ccc(-c2ccc(Cl)c(F)c2F)cc1=O)(C(=O)NO)S(C)(=O)=O [Example 49, (2R)-4-[4-(4-chloro-2,3-difluorophenyl)-2-oxopyridin-1(2H)-yl]-N-hydroxy-2-methyl-2-(methylsulfonyl)butanamide] | > 64 mg/L | 0.125 mg/L | 0.25 mg/L | – | – | – | – |
| Cc1nccc(-c2ccc(-c3ccn(CC[C@](C)(C(=O)NO)S(C)(=O)=O)c(=O)c3)cc2)n1 [Example 23, (2R)-N-hydroxy-2-methyl-4-{4-[4-(2-methylpyrimidin-4-yl)phenyl]-2-oxopyridin-1(2H)-yl}-2-(methylsulfonyl)butanamide] | > 64 mg/L | 2 mg/L | 2 mg/L | – | – | – | – |
| Cc1c(O)ccc(-c2ccn(CC[C@](C)(C(=O)NO)S(C)(=O)=O)c(=O)c2)c1F [Example 12, (2R)-4-[4-(2-fluoro-4-hydroxy-3-methylphenyl)-2-oxopyridin-1(2H)-yl]-N-hydroxy-2-methyl-2-(methylsulfonyl)butanamide] | > 64 mg/L | 16 mg/L | 16 mg/L | – | – | – | – |
| CC1(O)CCC(Oc2ccc(-c3ccn(CC[C@](C)(C(=O)NO)S(C)(=O)=O)c(=O)c3)cc2)CC1 (stereo partly drawn) [Example 10-A, (2R)-N-hydroxy-4-[4-{4-[(4-hydroxy-4-methylcyclohexyl)oxy]phenyl}-2-oxopyridin-1(2H)-yl]-2-methyl-2-(methylsulfonyl)butanamide] | > 64 mg/L | 0.25 mg/L | 1 mg/L | – | – | – | – |
| Cn1nccc1-c1ccc(-c2ccn(CC[C@](C)(C(=O)NO)S(C)(=O)=O)c(=O)c2)cc1 [Example 24, (2R)-N-hydroxy-2-methyl-4-{4-[4-(1-methyl-1H-pyrazol-5-yl)phenyl]-2-oxopyridin-1(2H)-yl}-2-(methylsulfonyl)butanamide] | > 64 mg/L | 1 mg/L | 2 mg/L | – | – | – | – |
| CC(CCn1ccc(-c2ccc(OC3CC(CO)C3)cc2)cc1=O)(C(=O)NO)S(C)(=O)=O (centres unmarked) [Example 10-F, N-hydroxy-4-[4-(4-{[3-(hydroxymethyl)cyclobutyl]oxy}phenyl)-2-oxopyridin-1(2H)-yl]-2-methyl-2-(methylsulfonyl)butanamide] | 64 mg/L | 0.5 mg/L | 2 mg/L | – | – | – | – |
| CC(CCn1ccc(-c2ccc(CCCO)cc2)cc1=O)(C(=O)NO)S(C)(=O)=O (centres unmarked) [Example 31, N-Hydroxy-4-{4-[4-(3-hydroxypropyl)phenyl]-2-oxopyridin-1(2H)-yl}-2-methyl-2-(methylsulfonyl)butanamide] | > 64 mg/L | 8 mg/L | 4 mg/L | – | – | – | – |
| C[C@@](CCn1ccc(-c2ccc(OC(F)F)cc2F)cc1=O)(C(=O)NO)S(C)(=O)=O [Example 28, (2R)-4-{4-[4-(difluoromethoxy)-2-fluorophenyl]-2-oxopyridin-1(2H)-yl}-N-hydroxy-2-methyl-2-(methylsulfonyl)butanamide] | > 64 mg/L | 0.25 mg/L | 0.5 mg/L | – | – | – | – |
| C[C@@](CCn1ccc(-c2cccc(F)c2)cc1=O)(C(=O)NO)S(C)(=O)=O [Example 42, (2R)-4-[4-(3-fluorophenyl)-2-oxopyridin-1(2H)-yl]-N-hydroxy-2-methyl-2-(methylsulfonyl)butanamide] | > 64 mg/L | 2 mg/L | 1 mg/L | – | – | – | – |
| C[C@@](CCn1ccc(-c2ccc(-c3ccon3)cc2)cc1=O)(C(=O)NO)S(C)(=O)=O [Example 68-F, (2R)-N-hydroxy-4-[4-(4-isoxazol-3-ylphenyl)-2-oxopyridin-1(2H)-yl]-2-methyl-2-(methylsulfonyl)butanamide] | > 64 mg/L | 0.25 mg/L | 0.5 mg/L | – | – | – | – |
| CC(C)(O)C(O)CCOc1ccc(-c2ccn(CC[C@](C)(C(=O)NO)S(C)(=O)=O)c(=O)c2)cc1 (stereo partly drawn) [Example 10-K, (2R)-4-[4-{4-[(3,4-dihydroxy-4-methylpentyl)oxy]phenyl}-2-oxopyridin-1(2H)-yl]-N-hydroxy-2-methyl-2-(methylsulfonyl)butanamide] | > 64 mg/L | 8 mg/L | 8 mg/L | – | – | – | – |
| Cc1cc(-c2ccn(CCC(C)(C(=O)NO)S(C)(=O)=O)c(=O)c2)ccc1OCCCN1CCOCC1 (centres unmarked) [Example 222, N-hydroxy-2-methyl-4-{4-[3-methyl-4-(3-morpholin-4-ylpropoxy)phenyl]-2-oxopyridin-1(2H)-yl}-2-(methylsulfonyl)butanamide] | – | – | – | 2 mg/L | 8 mg/L | – | – |
| CC(CCn1ccc(-c2ccc(OCCCN3CCCC3)cc2)cc1=O)(C(=O)NO)S(C)(=O)=O (centres unmarked) [Example 78] | – | – | – | – | – | > 64 mg/L | > 64 mg/L |
| Cc1ccc(F)cc1-c1ccn(CCC(C)(C(=O)NO)S(C)(=O)=O)c(=O)c1 (centres unmarked) [Example 171, 4-[4-(5-fluoro-2-methylphenyl)-2-oxopyridin-1(2H)-yl]-N-hydroxy-2-methyl-2-(methylsulfonyl)butanamide] | – | – | – | – | – | 64 mg/L | 32 mg/L |
| C[C@@](CCn1ccc(-c2ccc(-c3cocn3)cc2)cc1=O)(C(=O)NO)S(C)(=O)=O [Example 389, (2R)-N-hydroxy-2-methyl-2-(methylsulfonyl)-4-{4-[4-(1,3-oxazol-4-yl)phenyl]-2-oxopyridin-1(2H)-yl}butanamide] | – | – | – | 1 mg/L | 1 mg/L | – | – |
| Cc1cc(-c2ccccc2)cc(=O)n1CCC(C)(C(=O)NO)S(C)(=O)=O (centres unmarked) [Example 220, N-hydroxy-2-methyl-4-(6-methyl-2-oxo-4-phenylpyridin-1(2H)-yl)-2-(methylsulfonyl)butanamide] | – | – | – | > 64 mg/L | > 64 mg/L | – | – |
| CC(CCn1ccc(-c2ccccc2C#N)cc1=O)(C(=O)NO)S(C)(=O)=O (centres unmarked) [Example 132, 4-[4-(2-cyanophenyl)-2-oxopyridin-1(2H)-yl]-N-hydroxy-2-methyl-2-(methylsulfonyl)butanamide] | – | – | – | – | – | > 64 mg/L | > 64 mg/L |
| CC(CCn1ccc(-c2cccc(F)c2Cl)cc1=O)(C(=O)NO)S(C)(=O)=O (centres unmarked) [Example 157, 4-[4-(2-chloro-3-fluorophenyl)-2-oxopyridin-1(2H)-yl]-N-hydroxy-2-methyl-2-(methylsulfonyl)butanamide] | – | – | – | – | – | 4 mg/L | 2 mg/L |
